This is an account of results in patent US20250232831A1, “METHOD FOR PREDICTING CELL MEMBRANE PERMEABILITY OF CYCLIC PEPTIDE” (FUJIFILM Corporation, priority 2022, published 2025).

A short description of this series: Evaluation of cell membrane permeability (permeation test, permeability coefficient Papp). The note with it: dog. In kind it is in vitro ADME.

Read-outs that look alike come from different tables or passages of the source. Where a SMILES comes first, the peptide text is derived from it. Bridges are numbered along the chain shown (N, C = ends). [ ]: non-standard residue; d: D form. The star is where a group is joined. NMeL = CN[C@@H](CC(C)C)C(=O)O; hCys = N[C@@H](CCS)C(=O)O; NMeA = CN[C@@H](C)C(=O)O; Piperidide = C1CCN(*)CC1; dNMeA = CN[C@H](C)C(=O)O

Description: 300 μL of MDCK II cells (ECACC standard cell line) at a density of 1.0×10^6 cells/mL were seeded in an insert (dedicated for a 24-well plate, pore diameter: 3.0 μm, manufactured by Corning Incorporated), and cultured at 37° C. in a 5% CO2 environment. After 3 days, the electric resistance value of the cell layer (measuring device: Millicell (registered trademark) ERS-2 (manufactured by Millipore Corporation), electrode: ENDOHM-6 (manufactured by WPI, Inc.)) was measured, and it was confirmed that the cell layer had high barrier properties (>100 (2 Ω·cm^2).
The insert was washed by being immersed in a Hank's Balanced Salt Solution (HBSS) (phenol red-free), 200 μL of a sample prepared at 10 μmol/L/HBSS was added thereto, and the insert was allowed to stand in a low-adsorption 24-well plate containing 900 μL of HBSS (37° C., 5% CO2). After 2 hours, each liquid of the upper layer (apical) and the lower layer (basal) of the insert (10 μL for apical and 500 μL for basal) was recovered. After testing, no leakage was confirmed with Lucifer Yellow, which is a non-permeable fluorescent dye.
The device used was LC/MS/MS (triple quadrupole type). […]
Based on the calculation expression shown in the following expression, a permeability coefficient Papp, which represents the membrane permeability, was calculated from each quantitative value. […]

On to `CC(C)C[C@@H]1NC(=O)[C@H](C)N(C)C(=O)[C@@H](C)N(C)C(=O)[C@H](CC(C)C)N(C)C(=O)[C@H](CC(C)C)N(C)C(=O)[C@H](CC(C)C)NC(=O)[C@H](CC(C)C)N(C)C(=O)CSCC[C@@H](C(=O)N2CCCCC2)NC(=O)[C@H](C)N(C)C(=O)[C@H](C)N(C)C1=O` [Compound 1] ({CH2CO}-[NMeL]L[NMeL][NMeL][dNMeA][NMeA]L[NMeA][NMeA][hCys]-Piperidide; thioether N-10), for which the Papp A→B at 2 h, 10 μmol/L (MDCK) turned out to be 11 nm/s.

Take `CC(C)C[C@@H]1NC(=O)[C@H](CC(C)C)N(C)C(=O)CSCC[C@@H](C(=O)N2CCCCC2)NC(=O)[C@H](C)N(C)C(=O)[C@@H]2CCCN2C(=O)[C@H](CC(C)C)N(C)C(=O)[C@H](C)NC(=O)[C@H](C)N(C)C(=O)[C@H](CC(C)C)N(C)C(=O)[C@H](CC(C)C)N(C)C1=O` [Compound 2] ({CH2CO}-[NMeL]L[NMeL][NMeL][NMeA]A[NMeL]P[NMeA][hCys]-Piperidide; thioether N-10): the Papp A→B at 2 h, 10 μmol/L (MDCK II cells, 10 μmol/L sample in HBSS, 2 hours, 37° C., apical to basal, read-out: Cell membrane permeability Papp) turned out to be 0.4 nm/s.
